Test results from patent US8450350B2, “Triazoles as inhibitors of fatty acid synthase” (Infinity Pharmaceuticals, Inc., priority 2010, dated 2013).
pIC50: −log10 of the molar value.

Molecular target: T1, human FASN (Homo sapiens, UniProt P49327)
T1 construct: purified from SKBR3 cells using procedures modified from those in Jayakumar et al; endogenous in cells; host or cells: SKBR3 cells (ATCC); endogenous FASN purified in house by ammonium sulfate precipitation and mono Q chromatography
Experiment: FASN NADPH consumption assay
Assay type: biochemical
Settings: IC50 class, FASN NADPH Consumption Assay (symbols without asterisk); human FASN purified from SKBR3 cells
Description: Human FASN protein (SEQ ID NO 1) was purified from SKBR3 cells using procedures modified from those in Jayakumar et al., PNAS (1995) 92:8695-8699. SKBR3 cells were obtained from ATCC and grown in DMEM high glucose medium supplemented with 10% FBS, 1 μg/mL bovine pancreas insulin, 100 U/mL penicillin and 100 μg/mL streptomycin. The confluent cells were trypsinized and washed three times with PBS buffer before frozen in liquid N2 and stored at −80° C. Frozen cells were thawed on ice and re-suspended in lysis buffer (25 mM Tris-HCl, pH 7.0, 15 mM NaCl, 1 mM EDTA, and 1 mM DTT) with protease inhibitors. The cells were lysed by sonication, and the cell debris was removed by centrifugation at 20,000 rpm for 30 min. To the supernatant, neutralized saturated ammonium sulfate solution was added to a final concentration of 35%. The solution was left on ice for 1 hr, and the precipitated proteins were harvested by centrifugation at 20,000 rpm for 30 min. The proteins were re-dissolved in lysis buffer without NaCl and loaded on a mono Q column. Bound proteins were eluted with a linear gradient of NaCl in lysis buffer. Each fraction was analyzed by SDS-PAGE and FASN NADPH consumption assay. The fractions containing FASN were pooled and concentrated to 2-3 mg/mL. Glycerol was added to 20%, and the protein was frozen in liquid N2 and stored at −80° C.
All chemicals were purchased from Sigma (St. Louis, Mo.). The procedures of NADPH consumption assay were similar to those described in Cox et al., PNAS (1983) 80:4233-4237. On a 96-well polypropylene microplate, dilution series (typical concentrations 60 nM-1.0 mM) of inhibitor compounds were prepared in DMSO, of which 4.0 μL each was transferred to a black polystyrene assay microplate and mixed with 36 μL FASN assay buffer (50 mM potassium phosphate, pH 7.0, 1.0 mM EDTA, 0.01% NP-40) plus 5.0 mM fresh DTT. FASN protein (40 μL 150 nM FASN) was added per well, and the microplate was incubated at 37° C. for 30 min. Enzyme activity measurement was initiated by addition of 20 μL 5× substrate mixture to final concentrations of 60 nM FASN, 2.4 nM-40 μM compound, 0.2 mM NADPH, 50 μM butyryl-CoA, 0.5 mM malonyl-CoA in 100 μL assay buffer plus 5.0 mM DTT and 4.0% DMSO. NADPH consumption was monitored kinetically by fluorescence (λEX=340 nm, λEm=460 nm) on an EnVision 2100 multilabel plate reader (Perkin Elmer, Waltham, Mass.). FASN enzyme activity (slope) in the presence of 4% DMSO was used as maximum control, whereas background (minimum control) was measured by omission of malonyl-CoA in the substrate mixture. Inhibition curves were fitted by a logistic function to yield IC50 values: […]

T1 sequence (P49327 whole entry): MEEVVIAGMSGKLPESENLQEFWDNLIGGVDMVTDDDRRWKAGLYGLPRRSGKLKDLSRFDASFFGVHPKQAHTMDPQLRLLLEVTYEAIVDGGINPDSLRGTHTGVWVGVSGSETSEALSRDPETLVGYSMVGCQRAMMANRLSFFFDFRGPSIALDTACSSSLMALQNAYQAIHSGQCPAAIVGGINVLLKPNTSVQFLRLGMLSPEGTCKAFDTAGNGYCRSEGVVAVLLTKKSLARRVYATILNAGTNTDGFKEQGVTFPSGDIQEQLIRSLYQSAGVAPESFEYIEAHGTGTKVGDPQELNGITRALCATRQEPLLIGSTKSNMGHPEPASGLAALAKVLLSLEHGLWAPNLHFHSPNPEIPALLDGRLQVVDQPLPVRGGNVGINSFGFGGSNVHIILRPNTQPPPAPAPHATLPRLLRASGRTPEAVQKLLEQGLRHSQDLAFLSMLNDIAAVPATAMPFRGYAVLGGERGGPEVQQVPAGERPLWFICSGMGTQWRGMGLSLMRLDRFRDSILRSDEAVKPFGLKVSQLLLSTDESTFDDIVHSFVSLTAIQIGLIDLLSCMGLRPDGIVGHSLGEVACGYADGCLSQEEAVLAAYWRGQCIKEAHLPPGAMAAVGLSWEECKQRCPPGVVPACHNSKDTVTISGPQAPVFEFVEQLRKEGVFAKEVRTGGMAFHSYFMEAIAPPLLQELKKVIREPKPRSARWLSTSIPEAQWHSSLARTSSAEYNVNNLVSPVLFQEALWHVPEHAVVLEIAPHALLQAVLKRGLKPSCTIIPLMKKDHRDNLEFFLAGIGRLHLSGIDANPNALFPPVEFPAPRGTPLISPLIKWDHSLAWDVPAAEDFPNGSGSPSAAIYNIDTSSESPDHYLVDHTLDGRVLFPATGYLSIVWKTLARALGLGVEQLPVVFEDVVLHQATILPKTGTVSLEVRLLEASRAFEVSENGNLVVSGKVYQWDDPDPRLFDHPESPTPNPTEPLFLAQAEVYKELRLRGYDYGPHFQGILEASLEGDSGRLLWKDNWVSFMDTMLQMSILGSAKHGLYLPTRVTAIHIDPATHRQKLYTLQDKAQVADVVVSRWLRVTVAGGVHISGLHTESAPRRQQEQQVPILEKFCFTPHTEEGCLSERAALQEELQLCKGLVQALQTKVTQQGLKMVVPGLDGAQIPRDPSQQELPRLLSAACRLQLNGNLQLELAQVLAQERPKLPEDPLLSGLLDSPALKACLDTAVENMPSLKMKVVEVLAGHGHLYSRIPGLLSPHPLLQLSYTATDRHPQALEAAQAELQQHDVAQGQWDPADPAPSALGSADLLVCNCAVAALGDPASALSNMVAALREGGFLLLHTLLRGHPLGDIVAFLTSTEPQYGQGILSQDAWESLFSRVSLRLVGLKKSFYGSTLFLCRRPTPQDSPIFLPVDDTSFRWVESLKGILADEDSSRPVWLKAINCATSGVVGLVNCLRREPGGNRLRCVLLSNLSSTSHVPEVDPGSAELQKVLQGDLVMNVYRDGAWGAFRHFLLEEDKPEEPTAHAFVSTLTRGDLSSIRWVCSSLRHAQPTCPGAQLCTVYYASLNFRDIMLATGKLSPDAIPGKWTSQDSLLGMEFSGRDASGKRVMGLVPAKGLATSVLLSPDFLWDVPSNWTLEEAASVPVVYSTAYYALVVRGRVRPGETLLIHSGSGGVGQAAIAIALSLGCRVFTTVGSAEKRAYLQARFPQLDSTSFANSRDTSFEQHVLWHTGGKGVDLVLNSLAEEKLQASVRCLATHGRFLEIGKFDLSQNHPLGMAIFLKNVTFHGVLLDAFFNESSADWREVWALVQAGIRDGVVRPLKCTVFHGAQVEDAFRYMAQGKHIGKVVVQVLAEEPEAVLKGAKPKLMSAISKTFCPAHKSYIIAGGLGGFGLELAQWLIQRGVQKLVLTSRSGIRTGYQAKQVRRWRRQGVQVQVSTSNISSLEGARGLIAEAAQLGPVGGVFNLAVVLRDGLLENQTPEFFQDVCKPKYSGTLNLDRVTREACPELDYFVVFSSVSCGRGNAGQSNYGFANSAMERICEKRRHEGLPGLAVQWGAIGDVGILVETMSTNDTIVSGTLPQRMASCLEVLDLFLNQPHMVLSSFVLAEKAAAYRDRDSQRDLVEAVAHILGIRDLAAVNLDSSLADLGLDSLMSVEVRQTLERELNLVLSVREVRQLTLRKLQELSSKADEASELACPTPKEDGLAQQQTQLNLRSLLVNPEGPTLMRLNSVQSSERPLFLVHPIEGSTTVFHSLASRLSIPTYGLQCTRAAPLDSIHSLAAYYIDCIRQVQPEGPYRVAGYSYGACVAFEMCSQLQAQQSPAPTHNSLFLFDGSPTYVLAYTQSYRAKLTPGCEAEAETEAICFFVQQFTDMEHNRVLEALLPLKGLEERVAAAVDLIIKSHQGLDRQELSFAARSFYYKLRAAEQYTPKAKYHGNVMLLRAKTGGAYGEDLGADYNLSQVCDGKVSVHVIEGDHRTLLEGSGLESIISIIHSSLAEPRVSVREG

Row | pIC50 | Structure (SMILES)
1 | > 6.70 | N#Cc1c(-c2ccccc2CCc2ccccc2)nnn1C(=O)N1CCCC2CCCCC21 (stereo not shown)
2 | 6.30 to 6.70 | CCN(C(=O)n1nnc(C2CCCCC2)c1C#N)c1ccccc1
3 | > 6.70 | CCN(C(=O)n1nnc(-c2c(F)cccc2F)c1C#N)c1ccccc1
4 | > 6.70 | CCN(C(=O)n1nnc(-c2c(F)cccc2Cl)c1C#N)c1ccccc1
5 | > 6.70 | CCN(C(=O)n1nnc(-c2c(Cl)cccc2Cl)c1C#N)c1ccccc1
6 | > 6.70 | CCN(C(=O)n1nnc(-c2c(F)cccc2Cl)c1C#N)c1ccccc1F
7 | > 6.70 | CCN(C(=O)n1nnc(-c2ccccc2Oc2ccccc2)c1C#N)c1ccccc1
8 | < 6.00 | CC(=O)N1CCC(N(Cc2ccccc2)C(=O)n2nnc(-c3ccccc3Oc3ccccc3)c2C#N)CC1
9 | 6.00 to 6.30 | CCOC(=O)c1c(-c2ccccc2Oc2ccccc2)nnn1C(=O)N(CC)c1ccccc1
10 | 6.00 to 6.30 | CCN(C(=O)n1nnc2ncccc21)c1ccccc1
11 | 6.00 to 6.30 | CCN(C(=O)n1nnc2ccccc21)c1ccccc1F
12 | < 6.00 | CCN(C(=O)n1nnc2ccccc21)c1ccc(C(=O)O)cc1
13 | < 6.00 | CCN(C(=O)n1nncc1-c1ccccc1Cl)c1ccccc1
14 | < 6.00 | CCN(C(=O)n1nncc1-c1ccccc1Cl)c1ccccc1F
15 | < 6.00 | CCN(C(=O)n1cc(-c2ccccc2)nn1)C1CCCCC1
16 | 6.00 to 6.30 | CCN(C(=O)n1cc(-c2ccccc2Cl)nn1)c1ccccc1
17 | < 6.00 | CCN(C(=O)n1cc(-c2ccccc2Cl)nn1)c1ccccc1F
18 | 6.00 to 6.30 | CCOC(=O)c1c(-c2ccccc2Oc2ccccc2)nnn1C(=O)N1CCCC2CCCCC21 (stereo not shown) [ethyl 1-(decahydroquinoline-1-carbonyl)-4-(2-phenoxyphenyl)-1H-1,2,3-triazole-5-carboxylate]

More lines, now with the values behind:

Row | Structure (SMILES) | pIC50
19 | N#Cc1c(-c2c(F)cccc2F)nnn1C(=O)N1CCCC2CCCCC21 (stereo not shown) | 6.30 to 6.70
20 | N#Cc1c(-c2c(Cl)cccc2Cl)nnn1C(=O)N1CCCC2CCCCC21 (stereo not shown) | 6.30 to 6.70
21 | COC(=O)C1CCc2ccccc2N1C(=O)n1nnc(-c2ccccc2Oc2ccccc2)c1C#N (stereo not shown) | 6.00 to 6.30
22 | C[C@@H](NC(=O)c1ccccc1-c1nnn(C(=O)N2CCCC3CCCCC32)c1C#N)c1ccccc1 (stereo partly shown) | 6.30 to 6.70
23 | C[C@H](NC(=O)c1ccccc1-c1nnn(C(=O)N2CCCC3CCCCC32)c1C#N)c1ccccc1 (stereo partly shown) | > 6.70
24 | C[C@@H]1[C@@H](NC(=O)c2ccccc2-c2nnn(C(=O)N3CCCC4CCCCC43)c2C#N)C[C@@H]2C[C@H]1C2(C)C (stereo partly shown) | 6.00 to 6.30
25 | C[C@H]1[C@H](NC(=O)c2ccccc2-c2nnn(C(=O)N3CCCC4CCCCC43)c2C#N)C[C@H]2C[C@@H]1C2(C)C (stereo partly shown) | 6.30 to 6.70
26 | CC(C)(C)OC(=O)N1CCC(N(Cc2ccccc2)C(=O)n2nnc(-c3ccccc3Oc3ccccc3)c2C#N)CC1 | < 6.00
27 | CCOC(=O)c1c(C2CC3C=CC2C3)nnn1C(=O)N1CCCC2CCCCC21 (stereo not shown) | < 6.00
28 | C[C@H]1[C@H](NC(=O)c2c(-c3ccccc3Oc3ccccc3)nnn2C(=O)N2CCCC3CCCCC32)C[C@H]2C[C@@H]1C2(C)C (stereo partly shown) | < 6.00
29 | C[C@@H]1[C@@H](NC(=O)c2c(-c3ccccc3Oc3ccccc3)nnn2C(=O)N2CCCC3CCCCC32)C[C@@H]2C[C@H]1C2(C)C (stereo partly shown) | < 6.00
30 | O=C(N1CCCC2CCCCC21)n1nnc2ccccc21 (stereo not shown) | < 6.00
31 | O=C(N1CCCC2CCCCC21)n1nnc2ncccc21 (stereo not shown) | < 6.00
32 | CCN(C(=O)n1nncc1-c1ccccc1)C1CCCCC1 | < 6.00

Molecular target: T1, human FASN
Experiment: FASN Scintillation Proximity Flashplate assay
Assay type: biochemical
Settings: IC50 class, FASN Scintillation Proximity Flashplate Assay (symbols with asterisk); human FASN purified from SKBR3 cells
Description: Human FASN protein (SEQ ID NO 1) was purified from SKBR3 cells using procedures modified from those in Jayakumar et al., PNAS (1995) 92:8695-8699. SKBR3 cells were obtained from ATCC and grown in DMEM high glucose medium supplemented with 10% FBS, 1 μg/mL bovine pancreas insulin, 100 U/mL penicillin and 100 μg/mL streptomycin. The confluent cells were trypsinized and washed three times with PBS buffer before frozen in liquid N2 and stored at −80° C. Frozen cells were thawed on ice and re-suspended in lysis buffer (25 mM Tris-HCl, pH 7.0, 15 mM NaCl, 1 mM EDTA, and 1 mM DTT) with protease inhibitors. The cells were lysed by sonication, and the cell debris was removed by centrifugation at 20,000 rpm for 30 min. […] Each fraction was analyzed by SDS-PAGE and FASN NADPH consumption assay. […]
Acetyl-coenzyme A, malonyl-coenzyme A, NADPH, bovine gamma globulin, and orlistat were purchased from Sigma (St. Louis, Mo.). […] The plates were read in a Wallac 1450 Microbeta Plus liquid scintillation counter (Perkin Elmer, Waltham, Mass.), and counts per minute (CPM) were collected over 2 min. Each inhibitor well CPM was compared to the maximum FASN enzyme activity (Max) CPM and the background (Min) CPM, as measured by omission of FASN enzyme in the background well. % Inhibition values were calculated, and curves were fitted by a four-parameter logistic function to yield IC50 values: […]

Row | pIC50 | Structure (SMILES)
33 | > 6.70 | CCN(C(=O)n1nnc(-c2ccccc2CCc2ccccc2)c1C#N)c1ccccc1
34 | > 6.70 | CC(C)N(C(=O)n1nnc(-c2c(F)cccc2F)c1C#N)c1cccc(C(=O)O)c1 [3-(5-cyano-4-(2,6-difluorophenyl)-N-isopropyl-1H-1,2,3-triazole-1-carboxamido)benzoic acid]
